Reference: patent publication US7074789B2, “Kinase inhibitors” (Amgen Inc., priority 1999, dated 2006)

Key:
Format in all cases: biochemical
Lck = biological target: T1, Lck (Homo sapiens, UniProt P06239); test: Kinase inhibition assay (33P transfer), Lck; conditions: for IC50: read-out: Lck-1
T1 construct: Kinases are expressed as either kinase domains or full length constructs; made in house
Outline: (§1)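 Measured by scintillation: radiolabelled phosphate added by tagged recombinant kinases to poly(Glu,Tyr) 4:1 or poly(Arg,Ser) 3:1 attached to microtiter wells, counted once free label was washed away with 0.5% phosphoric acid.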

Zap-70 = biological target: T2, Zap-70 (Homo sapiens, UniProt P43403); test: Kinase inhibition assay (33P transfer), Zap-70; conditions: for IC50: read-out: Zap-1
T2 construct: Kinases are expressed as either kinase domains or full length constructs; made in house
T2 sequence (P43403 1-619): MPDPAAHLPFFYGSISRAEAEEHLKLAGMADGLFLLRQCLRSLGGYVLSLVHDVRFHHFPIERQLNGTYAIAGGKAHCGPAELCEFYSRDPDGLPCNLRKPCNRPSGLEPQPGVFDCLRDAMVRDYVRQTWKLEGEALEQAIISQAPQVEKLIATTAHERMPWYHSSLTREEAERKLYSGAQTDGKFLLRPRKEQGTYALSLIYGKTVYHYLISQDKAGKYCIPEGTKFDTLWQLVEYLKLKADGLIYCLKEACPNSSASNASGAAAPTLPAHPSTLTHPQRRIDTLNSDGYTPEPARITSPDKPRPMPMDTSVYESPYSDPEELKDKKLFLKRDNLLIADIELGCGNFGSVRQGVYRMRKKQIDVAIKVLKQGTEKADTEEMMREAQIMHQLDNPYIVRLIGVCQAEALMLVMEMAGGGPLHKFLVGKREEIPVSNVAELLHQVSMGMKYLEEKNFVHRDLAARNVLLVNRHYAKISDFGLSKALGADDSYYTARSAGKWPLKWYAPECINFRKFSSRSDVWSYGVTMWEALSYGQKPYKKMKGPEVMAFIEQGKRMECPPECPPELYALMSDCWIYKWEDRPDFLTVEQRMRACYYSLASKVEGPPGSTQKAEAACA
Outline: as §1

Itk = biological target: T3, Itk (Homo sapiens, UniProt Q08881); test: Kinase inhibition assay (33P transfer), Itk; conditions: for IC50: read-out: Itk-1
T3 construct: Kinases are expressed as either kinase domains or full length constructs; made in house
T3 sequence (Q08881 1-620): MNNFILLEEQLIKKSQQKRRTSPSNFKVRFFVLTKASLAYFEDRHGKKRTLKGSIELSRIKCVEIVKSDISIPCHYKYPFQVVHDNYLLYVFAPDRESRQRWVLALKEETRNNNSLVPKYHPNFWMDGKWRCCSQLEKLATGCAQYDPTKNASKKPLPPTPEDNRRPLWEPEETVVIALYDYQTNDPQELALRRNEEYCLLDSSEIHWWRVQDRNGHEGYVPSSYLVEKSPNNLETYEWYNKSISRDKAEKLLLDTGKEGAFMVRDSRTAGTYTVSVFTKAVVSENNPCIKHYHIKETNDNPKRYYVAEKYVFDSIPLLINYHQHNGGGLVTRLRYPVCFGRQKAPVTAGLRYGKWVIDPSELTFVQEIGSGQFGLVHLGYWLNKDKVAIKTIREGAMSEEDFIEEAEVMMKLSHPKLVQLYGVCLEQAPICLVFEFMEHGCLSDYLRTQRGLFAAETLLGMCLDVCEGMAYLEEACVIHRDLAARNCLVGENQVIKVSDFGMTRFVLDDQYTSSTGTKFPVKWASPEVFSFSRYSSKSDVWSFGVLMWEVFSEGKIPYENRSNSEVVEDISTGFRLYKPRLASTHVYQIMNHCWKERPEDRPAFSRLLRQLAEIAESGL
Outline: (§2)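 Recombinant kinase domains or full-length GST- or His-tagged constructs, from E. coli or baculovirus/High Five cells, sometimes with regulatory polypeptides. Transfer of 33P from ATP to plate-bound poly(Glu,Tyr) 4:1 or poly(Arg,Ser) 3:1 counted by liquid scintillation after phosphoric acid wash; IC50 is the concentration halving incorporation.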

EGFR = biological target: T4, EGFR (Homo sapiens, UniProt P00533); test: Kinase inhibition assay (33P transfer), EGFR; conditions: Table 2, kinase inhibition class; for IC50: read-out: EGFR-1
T4 construct: Kinases are expressed as either kinase domains or full length constructs; made in house
Outline: as §2

ErbB2 = biological target: T5, ErbB2 (Homo sapiens, UniProt P04626); test: Kinase inhibition assay (33P transfer), ErbB2; conditions: for IC50: read-out: ErbB2-2
T5 construct: Kinases are expressed as either kinase domains or full length constructs; made in house
Outline: as §2

Kdr = biological target: T6, Kdr (Homo sapiens, UniProt P35968); test: Kinase inhibition assay (33P transfer), Kdr; conditions: for IC50: read-out: KDR-1
T6 construct: Kinases are expressed as either kinase domains or full length constructs; made in house
T6 sequence (P35968 20-1356, species assumed): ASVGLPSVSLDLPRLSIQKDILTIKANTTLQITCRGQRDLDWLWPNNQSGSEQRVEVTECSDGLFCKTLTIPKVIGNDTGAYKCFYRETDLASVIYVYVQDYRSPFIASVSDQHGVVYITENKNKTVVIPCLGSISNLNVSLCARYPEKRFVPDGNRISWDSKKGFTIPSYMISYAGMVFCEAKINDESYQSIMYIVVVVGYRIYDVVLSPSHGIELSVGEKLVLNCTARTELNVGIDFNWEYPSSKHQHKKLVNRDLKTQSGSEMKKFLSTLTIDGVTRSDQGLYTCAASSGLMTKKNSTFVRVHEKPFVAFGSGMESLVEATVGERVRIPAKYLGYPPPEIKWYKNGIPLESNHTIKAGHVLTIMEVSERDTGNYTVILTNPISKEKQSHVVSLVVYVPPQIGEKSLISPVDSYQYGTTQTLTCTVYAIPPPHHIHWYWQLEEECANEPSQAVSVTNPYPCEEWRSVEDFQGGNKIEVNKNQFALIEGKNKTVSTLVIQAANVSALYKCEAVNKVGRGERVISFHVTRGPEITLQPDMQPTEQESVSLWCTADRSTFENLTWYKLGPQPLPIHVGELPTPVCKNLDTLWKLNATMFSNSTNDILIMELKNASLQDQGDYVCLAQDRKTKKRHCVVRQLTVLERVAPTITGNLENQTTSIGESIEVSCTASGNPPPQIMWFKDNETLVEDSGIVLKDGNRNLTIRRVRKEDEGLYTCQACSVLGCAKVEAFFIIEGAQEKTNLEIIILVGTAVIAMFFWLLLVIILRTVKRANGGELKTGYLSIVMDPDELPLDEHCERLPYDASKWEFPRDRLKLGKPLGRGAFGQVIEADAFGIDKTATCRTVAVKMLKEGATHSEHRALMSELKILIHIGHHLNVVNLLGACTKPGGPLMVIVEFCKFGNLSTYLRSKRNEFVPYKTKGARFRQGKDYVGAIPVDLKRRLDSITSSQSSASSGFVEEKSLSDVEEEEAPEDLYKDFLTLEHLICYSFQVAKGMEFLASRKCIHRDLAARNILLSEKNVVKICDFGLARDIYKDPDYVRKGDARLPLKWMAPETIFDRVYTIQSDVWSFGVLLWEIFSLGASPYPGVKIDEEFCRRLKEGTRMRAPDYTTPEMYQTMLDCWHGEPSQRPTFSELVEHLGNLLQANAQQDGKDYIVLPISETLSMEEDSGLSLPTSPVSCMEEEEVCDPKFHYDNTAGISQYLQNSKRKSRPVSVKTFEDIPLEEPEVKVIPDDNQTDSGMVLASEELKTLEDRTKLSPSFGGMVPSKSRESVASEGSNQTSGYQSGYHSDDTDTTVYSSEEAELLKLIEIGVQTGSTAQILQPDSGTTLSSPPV
Outline: as §1

Tek = biological target: T7, Tek (Homo sapiens, UniProt Q02763); test: Kinase inhibition assay (33P transfer), Tek; conditions: for IC50: read-out: Tek-1
T7 construct: Kinases are expressed as either kinase domains or full length constructs; made in house
T7 sequence (Q02763 23-1124, species assumed): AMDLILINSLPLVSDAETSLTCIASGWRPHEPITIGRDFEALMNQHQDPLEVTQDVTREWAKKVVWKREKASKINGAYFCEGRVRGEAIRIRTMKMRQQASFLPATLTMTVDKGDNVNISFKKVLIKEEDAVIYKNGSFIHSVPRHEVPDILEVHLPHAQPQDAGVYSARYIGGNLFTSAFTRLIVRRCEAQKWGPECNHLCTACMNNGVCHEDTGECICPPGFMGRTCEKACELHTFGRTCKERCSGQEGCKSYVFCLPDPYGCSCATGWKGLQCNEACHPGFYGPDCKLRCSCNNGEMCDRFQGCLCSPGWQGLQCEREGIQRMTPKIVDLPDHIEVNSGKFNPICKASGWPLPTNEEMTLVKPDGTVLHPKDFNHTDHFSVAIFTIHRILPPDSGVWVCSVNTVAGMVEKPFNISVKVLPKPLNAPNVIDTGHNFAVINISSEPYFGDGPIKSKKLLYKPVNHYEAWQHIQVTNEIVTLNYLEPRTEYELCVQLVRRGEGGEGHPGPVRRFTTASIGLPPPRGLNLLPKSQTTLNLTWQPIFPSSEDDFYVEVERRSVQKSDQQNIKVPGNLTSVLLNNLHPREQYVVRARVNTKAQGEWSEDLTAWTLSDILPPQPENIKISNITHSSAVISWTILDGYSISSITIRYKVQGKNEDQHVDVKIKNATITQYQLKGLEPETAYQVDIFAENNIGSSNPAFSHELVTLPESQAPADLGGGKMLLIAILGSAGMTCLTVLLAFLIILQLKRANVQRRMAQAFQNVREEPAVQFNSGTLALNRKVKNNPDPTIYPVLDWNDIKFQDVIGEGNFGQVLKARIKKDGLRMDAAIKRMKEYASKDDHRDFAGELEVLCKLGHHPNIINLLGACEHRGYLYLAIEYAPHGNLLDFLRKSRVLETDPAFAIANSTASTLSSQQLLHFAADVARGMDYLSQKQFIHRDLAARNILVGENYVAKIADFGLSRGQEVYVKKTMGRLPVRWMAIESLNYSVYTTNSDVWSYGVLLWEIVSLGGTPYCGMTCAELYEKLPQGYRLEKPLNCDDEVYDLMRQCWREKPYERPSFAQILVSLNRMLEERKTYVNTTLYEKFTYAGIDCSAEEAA
Outline: as §2

c-Met = biological target: T8, c-Met (Homo sapiens, UniProt P08581); test: Kinase inhibition assay (33P transfer), c-Met; conditions: Table 2, kinase inhibition class; for IC50: read-out: Met-1
T8 construct: Kinases are expressed as either kinase domains or full length constructs; made in house
Outline: as §2

AKT = biological target: T9, AKT (Homo sapiens, UniProt Q9Y243); test: Kinase inhibition assay (33P transfer), AKT; conditions: Table 2, kinase inhibition class; for IC50: read-out: AKT3-1
T9 construct: Kinases are expressed as either kinase domains or full length constructs; made in house
Outline: as §1

IGFR-1 = biological target: T10, IGFR-1 (Homo sapiens, UniProt P08069); test: Kinase inhibition assay, IGFR-1 (Table 2); conditions: Table 2, kinase inhibition class
T10 construct: Kinases are expressed as either kinase domains or full length constructs; made in house
T10 sequence (P08069 31-1367): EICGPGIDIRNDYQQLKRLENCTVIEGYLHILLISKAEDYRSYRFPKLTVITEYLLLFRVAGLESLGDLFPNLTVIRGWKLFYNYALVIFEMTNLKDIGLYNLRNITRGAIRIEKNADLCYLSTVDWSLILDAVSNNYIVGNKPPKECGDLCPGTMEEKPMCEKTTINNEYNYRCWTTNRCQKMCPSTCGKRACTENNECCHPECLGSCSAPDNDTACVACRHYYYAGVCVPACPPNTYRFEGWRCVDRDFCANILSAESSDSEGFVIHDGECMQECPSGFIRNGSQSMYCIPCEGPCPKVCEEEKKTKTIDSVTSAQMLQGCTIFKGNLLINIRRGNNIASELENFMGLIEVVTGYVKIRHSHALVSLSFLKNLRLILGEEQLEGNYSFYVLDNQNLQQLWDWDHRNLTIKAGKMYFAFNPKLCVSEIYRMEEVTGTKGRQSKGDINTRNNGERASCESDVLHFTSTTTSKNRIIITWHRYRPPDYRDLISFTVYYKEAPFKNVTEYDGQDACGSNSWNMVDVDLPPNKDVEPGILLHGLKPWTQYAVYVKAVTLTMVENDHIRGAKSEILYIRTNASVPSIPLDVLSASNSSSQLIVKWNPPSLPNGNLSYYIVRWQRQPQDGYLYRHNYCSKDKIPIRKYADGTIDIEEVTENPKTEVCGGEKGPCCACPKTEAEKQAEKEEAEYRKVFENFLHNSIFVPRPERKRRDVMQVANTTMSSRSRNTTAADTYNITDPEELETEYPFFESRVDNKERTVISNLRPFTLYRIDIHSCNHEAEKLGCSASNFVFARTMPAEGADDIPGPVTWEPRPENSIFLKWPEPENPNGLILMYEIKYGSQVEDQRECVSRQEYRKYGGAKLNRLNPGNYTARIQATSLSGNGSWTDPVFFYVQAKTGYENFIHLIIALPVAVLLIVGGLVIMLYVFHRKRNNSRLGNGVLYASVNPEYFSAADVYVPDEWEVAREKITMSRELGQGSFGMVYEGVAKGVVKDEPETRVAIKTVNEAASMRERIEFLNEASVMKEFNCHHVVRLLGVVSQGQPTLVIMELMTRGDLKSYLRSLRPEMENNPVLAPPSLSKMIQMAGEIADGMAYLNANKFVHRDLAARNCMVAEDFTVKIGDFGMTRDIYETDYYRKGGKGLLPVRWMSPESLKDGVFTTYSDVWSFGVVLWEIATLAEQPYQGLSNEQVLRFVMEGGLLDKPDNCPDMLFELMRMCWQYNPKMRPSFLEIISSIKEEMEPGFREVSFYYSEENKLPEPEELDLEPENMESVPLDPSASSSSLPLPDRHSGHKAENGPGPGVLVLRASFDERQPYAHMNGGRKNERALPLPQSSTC

PDGFRB = biological target: T11, PDGFRB (Homo sapiens, UniProt P09619); test: Kinase inhibition assay (33P transfer), PDGFRB; conditions: for IC50: read-out: PDGFRB-1
T11 construct: Kinases are expressed as either kinase domains or full length constructs; made in house
T11 sequence (P09619 33-1106, species assumed): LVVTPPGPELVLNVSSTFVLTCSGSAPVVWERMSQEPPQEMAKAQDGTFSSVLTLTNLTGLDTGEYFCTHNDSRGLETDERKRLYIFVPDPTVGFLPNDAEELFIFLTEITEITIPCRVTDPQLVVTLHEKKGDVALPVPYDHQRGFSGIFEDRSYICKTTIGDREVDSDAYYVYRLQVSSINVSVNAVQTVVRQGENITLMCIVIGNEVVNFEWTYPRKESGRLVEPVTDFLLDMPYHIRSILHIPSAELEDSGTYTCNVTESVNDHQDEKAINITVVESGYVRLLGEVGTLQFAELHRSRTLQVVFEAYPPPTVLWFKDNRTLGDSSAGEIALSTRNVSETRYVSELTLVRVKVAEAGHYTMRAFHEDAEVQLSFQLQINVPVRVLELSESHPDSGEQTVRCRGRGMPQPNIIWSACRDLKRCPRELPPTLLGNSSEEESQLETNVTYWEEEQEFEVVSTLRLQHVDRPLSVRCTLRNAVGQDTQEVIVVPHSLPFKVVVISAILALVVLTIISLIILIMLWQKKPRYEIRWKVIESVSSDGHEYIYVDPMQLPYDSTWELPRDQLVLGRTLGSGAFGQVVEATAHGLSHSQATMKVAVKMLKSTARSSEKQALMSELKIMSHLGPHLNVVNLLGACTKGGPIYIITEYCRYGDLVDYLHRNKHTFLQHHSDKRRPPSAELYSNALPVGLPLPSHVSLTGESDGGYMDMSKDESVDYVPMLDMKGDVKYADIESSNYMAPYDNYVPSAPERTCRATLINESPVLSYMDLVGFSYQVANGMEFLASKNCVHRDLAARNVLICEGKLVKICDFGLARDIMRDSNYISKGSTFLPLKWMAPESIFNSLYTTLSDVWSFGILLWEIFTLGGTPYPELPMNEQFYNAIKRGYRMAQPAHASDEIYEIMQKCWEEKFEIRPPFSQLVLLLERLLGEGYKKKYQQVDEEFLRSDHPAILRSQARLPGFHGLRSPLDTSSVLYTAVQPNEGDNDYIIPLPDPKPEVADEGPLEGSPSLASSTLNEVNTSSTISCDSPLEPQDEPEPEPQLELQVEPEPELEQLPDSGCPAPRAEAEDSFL

SMILES | IC50 (Lck) [µM] | IC50 (Zap-70) [µM] | IC50 (Itk) [µM] | IC50 (EGFR) [µM] | IC50 (ErbB2) [µM] | IC50 (Kdr) [µM] | IC50 (Tek) [µM] | IC50 (c-Met) [µM] | IC50 (AKT) [µM] | IC50 (IGFR-1) [µM] | IC50 (PDGFRB) [µM] | other results
COc1cc(Nc2ncnc(-n3ncc(-c4ccccc4)c3N)n2)cc(OC)c1OC [Compound 522] | 0.954 to 5.72 | > 10.7 | 0.954 to 5.72 | 5.72 to 8.34 | 8.34 to 10.7 | 5.72 to 8.34 | 8.34 to 10.7 | 5.72 to 8.34 | > 10.7 | 0.954 to 5.72 | 5.72 to 8.34 | 
COC(=O)c1ccc(-c2cc(Nc3ncnc(Nc4cc(OC)c(OC)c(OC)c4)n3)[nH]n2)cc1 [Compound 523] | < 0.838 | > 9.42 | 7.33 to 9.42 | 0.838 to 5.03 | 7.33 to 9.42 | > 9.42 | > 9.42 | < 0.838 | > 9.42 | < 0.838 | > 9.42 | 
COc1cc(Nc2ncnc(Nc3cccc(C(F)(F)F)c3)n2)cc(OC)c1OC [Compound 614] | 0.949 to 5.7 | > 10.7 | > 10.7 | < 0.949 | 0.949 to 5.7 | 8.31 to 10.7 | 8.31 to 10.7 | > 10.7 | > 10.7 | < 0.949 | 0.949 to 5.7 | 
CCN(CC)C(=O)C1CCCN(c2ncnc(Nc3cc(OC)c(OC)c(OC)c3)n2)C1 (stereo not drawn) [Compound 615] | 7.87 to 10.1 | > 10.1 | 7.87 to 10.1 | > 10.1 | > 10.1 | > 10.1 | > 10.1 | > 10.1 | > 10.1 | > 10.1 | > 10.1 | 
COc1cccc(Nc2ncnc(-n3c(N)nc4ccccc43)n2)c1 [Compound 654] | 1.2 to 7.2 | > 13.5 | 1.2 to 7.2 | 7.2 to 10.5 | 1.2 to 7.2 | < 1.2 | 1.2 to 7.2 | 7.2 to 10.5 | > 13.5 | < 1.2 | 1.2 to 7.2 | 
CCc1ccc(Nc2ncnc(-n3c(N)nc4ccccc43)n2)cc1 [Compound 657] | 7.24 to 10.6 | 1.21 to 7.24 | 7.24 to 10.6 | 1.21 to 7.24 | 1.21 to 7.24 | 1.21 to 7.24 | 1.21 to 7.24 | 7.24 to 10.6 | 7.24 to 10.6 | 1.21 to 7.24 | 7.24 to 10.6 | 
Nc1nc2ccccc2n1-c1ncnc(Nc2cccnc2)n1 [Compound 658] | > 14.8 | > 14.8 | 1.31 to 7.89 | 7.89 to 11.5 | > 14.8 | 1.31 to 7.89 | > 14.8 | > 14.8 | > 14.8 | < 1.31 | > 14.8 | 
COc1cc(Nc2ncnc(-n3c(C)nc4ccccc43)n2)cc(OC)c1OC [Compound 691] | 1.02 to 6.12 | > 11.5 | 6.12 to 8.92 | 6.12 to 8.92 | > 11.5 | < 1.02 | > 11.5 | 1.02 to 6.12 | > 11.5 | < 1.02 | < 1.02 | 
COc1cc(Nc2ncnc(Nc3ccc(NS(=O)(=O)c4ccc([N+](=O)[O-])cc4)cc3)n2)cc(OC)c1OC [Compound 692] | < 0.723 | 0.723 to 4.34 | 0.723 to 4.34 | 0.723 to 4.34 | < 0.723 | < 0.723 | 0.723 to 4.34 | 4.34 to 6.32 | > 8.13 | 0.723 to 4.34 | < 0.723 | 
COc1cc(Nc2ncnc(Nc3cccc(C(C)=O)c3)n2)cc(OC)c1OC [Compound 697] | < 1.01 | > 11.4 | > 11.4 | 1.01 to 6.07 | 1.01 to 6.07 | 1.01 to 6.07 | 8.85 to 11.4 | > 11.4 | > 11.4 | 1.01 to 6.07 | < 1.01 | 
COc1cc(Nc2ncnc(Nc3ccc(O)c4ncccc34)n2)cc(OC)c1OC [Compound 699] |  |  |  |  |  |  |  |  |  |  |  | Lck-1 (Lck): A (A<0.4 ug/mL); Zap-1 (Zap-70): E (E>4.5 ug/mL); Itk-1 (Itk): B (B>0.4 and <2.4 ug/mL); EGFR-1 (EGFR): B (B>0.4 and <2.4 ug/mL); ErbB2-2 (ErbB2): A (A<0.4 ug/mL); KDR-1 (Kdr): B (B>0.4 and <2.4 ug/mL); Tek-1 (Tek): D (D>3.5 and <4.5 ug/mL); Met-1 (c-Met): E (E>4.5 ug/mL); AKT3-1 (AKT): E (E>4.5 ug/mL); IGFR-1 (IGFR-1): B (B>0.4 and <2.4 ug/mL); PDGFRB-1 (PDGFRB): A (A<0.4 ug/mL)
COc1cc(Nc2ncnc(-n3c(NCc4nc5ccccc5[nH]4)nc4ccccc43)n2)cc(OC)c1OC [Compound 954] | 6.69 to 8.6 | > 8.6 | 4.58 to 6.69 | > 8.6 | 4.58 to 6.69 | 6.69 to 8.6 | > 8.6 | 6.69 to 8.6 | > 8.6 | 6.69 to 8.6 | > 8.6 | 
COc1ccc(Nc2ncnc(Nc3cc(-c4ccccc4)n[nH]3)n2)cc1OC [Compound 977] | < 1.03 | > 11.6 | > 11.6 | 1.03 to 6.16 | 1.03 to 6.16 | < 1.03 | > 11.6 | < 1.03 | > 11.6 | < 1.03 | > 11.6 | 
COc1cc(C)c(Nc2ncnc(Nc3cc(-c4ccccc4)n[nH]3)n2)cc1OC [Compound 978] | 0.991 to 5.95 | > 11.2 | 5.95 to 8.68 | 0.991 to 5.95 | 0.991 to 5.95 | 0.991 to 5.95 | > 11.2 | < 0.991 | > 11.2 | < 0.991 | > 11.2 | 
O=C(O)Cc1cccc(Nc2ncnc(Nc3cc(-c4ccccc4)n[nH]3)n2)c1 [Compound 981] | 1.03 to 6.2 | > 11.6 | 1.03 to 6.2 | < 1.03 | 1.03 to 6.2 | < 1.03 | 1.03 to 6.2 | < 1.03 | > 11.6 | < 1.03 | 1.03 to 6.2 | 
O=C(O)Cc1cccc(Nc2ncnc(Nc3cc(-c4ccco4)n[nH]3)n2)c1 [Compound 983] | 6.36 to 9.27 | 6.36 to 9.27 | 1.06 to 6.36 | < 1.06 | > 11.9 | < 1.06 | 6.36 to 9.27 | < 1.06 | 9.27 to 11.9 | 1.06 to 6.36 | 1.06 to 6.36 | 
COc1cc(Nc2ncnc(Nc3cc(-c4ccc(C(=O)O)cc4)n[nH]3)n2)cc(OC)c1OC [Compound 1004] | < 0.863 | > 9.71 | 7.55 to 9.71 | 0.863 to 5.18 | 0.863 to 5.18 | 0.863 to 5.18 | 0.863 to 5.18 | < 0.863 | > 9.71 | < 0.863 | 0.863 to 5.18 | 
NC(=O)c1ccc(Nc2ncnc(-c3cccnc3NCc3cccs3)n2)cc1 [Compound 1083] | 0.991 to 5.95 | > 11.2 | 8.67 to 11.2 | 0.991 to 5.95 | > 11.2 | < 0.991 | 0.991 to 5.95 | > 11.2 | > 11.2 | > 11.2 | 0.991 to 5.95 | 
